Test results: patent US8604202B2, “Thienopyridone derivatives as AMP-activated protein kinase (AMPK) activators” (Merck Patent GmbH, priority 2008, dated 2013)

Legend:
[1] = target: T1, AMPK protein (recombinant α1β1γ2) (Homo sapiens, UniProt Q13131+Q9Y478); experiment: AMPK enzymatic activity (Delfia, AMARA peptide); format: biochemical; settings: compound 30 μM vs AMP 30 μM; 125 μM ATP; 30 min room temperature; ratio 90% or higher = direct activator
T1 construct: made in house; host or cells: E. coli
Description: The following biological test allows the determination of the efficacy of such compounds of formula (I) onto AMPK protein (recombinant α1β1γ2).
Human recombinant AMPK enzyme was expressed in E. Coli and was reactivated in vitro by LKB1 prior to enzyme activity determination.
AMPK enzyme activities were assayed by using A Delfia technology. AMPK enzyme activities were carried out in microtiter plates (50 mM Hepes buffer, pH 7.4 with 125 μM ATP respectively) in the presence of a synthetic peptide substrate (AMARAASAAALARRR, the “AMARA” peptide) and activators in serial dilutions. Reactions were initiated by the addition of AMPK (50-100 ng). Following mixing, the plates were incubated for 30 min at room temperature. Enzyme activity was assayed by using an anti-phosphoserine antibody to measure the quantity of phosphate incorporated into the AMARAA.
Ratio between the % of control (basal activity) of compound of formula (I) at 30 μM and the % of control (basal activity) of AMP (natural substrate) at 30 μM. Compounds of formula (I) in the table II are considered as direct activator of AMPK if the ratio is 90% or higher.

H-2 Kb cells = experiment: Glucose uptake in H-2 Kb cells (in vitro cellular test); format: cell-based, mouse; settings: differentiated H-2 Kb muscle cells, 4 hours incubation, 2-deoxy-D-[3H]glucose 10 min; for EC (glucose uptake equal or higher to insulin 170 nM): Mus musculus, read-out: activity: Concentration of compound for a glucose uptake equal or higher to glucose uptake induced by insulin (170 nM)
Description: The following cellular test allows the determination of the effect of AMPK activators such as compounds of formula (I) onto glucose uptake in a muscle cellular model.
H-2 Kb cells derived from heterozygous H-2 Kb tsA58 transgenic mouse were grown in 24-well in plates coated with matrigel and were cultured at 33° C. for 4 days under permissive conditions, as described previously by Fryer et al. (Diabetes 49 (12): 1978, 2000).
For differentiation in muscle, cells were switched to non-permissive culture conditions (37° C. in the absence of interferon-γ). After 3 days, cells were incubated for 4 hours in DMEM 1 g/l glucose culture medium containing different concentrations of the tested molecules. Then glucose uptake was measured by incubating the cells for 10 min with radiolabelled 2-deoxy-D-[1, 2 ^3H] glucose. Glucose uptake was terminated by rapidly washing the plates 2 times with ice-cold NaCl 0.9%. The cells were then solubilized in 0.1N NaOH for 30 min. Radioactivity was determined by liquid scintillation counting.
Activity table III: Concentration of compound (1) for a glucose uptake equal or higher to glucose uptake induced by insulin (170 nM)

T1 sequence (Q13131 whole entry): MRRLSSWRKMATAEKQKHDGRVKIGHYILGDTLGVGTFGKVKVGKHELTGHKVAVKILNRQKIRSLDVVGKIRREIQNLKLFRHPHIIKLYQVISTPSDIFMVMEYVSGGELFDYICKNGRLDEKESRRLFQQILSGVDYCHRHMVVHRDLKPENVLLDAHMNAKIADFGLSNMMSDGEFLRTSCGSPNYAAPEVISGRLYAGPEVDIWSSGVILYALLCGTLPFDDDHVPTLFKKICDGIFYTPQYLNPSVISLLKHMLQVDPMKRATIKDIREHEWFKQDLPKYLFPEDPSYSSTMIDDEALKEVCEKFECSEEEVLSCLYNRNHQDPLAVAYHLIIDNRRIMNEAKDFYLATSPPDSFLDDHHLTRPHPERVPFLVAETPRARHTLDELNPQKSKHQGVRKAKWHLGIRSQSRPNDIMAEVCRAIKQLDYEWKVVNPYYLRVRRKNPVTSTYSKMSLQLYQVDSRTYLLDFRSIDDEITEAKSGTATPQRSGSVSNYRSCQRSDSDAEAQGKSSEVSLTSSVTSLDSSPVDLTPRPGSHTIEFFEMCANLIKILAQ
T1 sequence (Q9Y478 whole entry): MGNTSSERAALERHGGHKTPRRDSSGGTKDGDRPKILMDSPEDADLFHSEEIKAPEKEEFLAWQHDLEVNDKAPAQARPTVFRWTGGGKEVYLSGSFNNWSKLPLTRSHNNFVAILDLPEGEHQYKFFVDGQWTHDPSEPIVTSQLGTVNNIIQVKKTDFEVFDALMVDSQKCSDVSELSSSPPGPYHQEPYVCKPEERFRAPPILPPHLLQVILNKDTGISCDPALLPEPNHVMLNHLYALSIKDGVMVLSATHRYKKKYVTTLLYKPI
T1 sequence (Q9UGJ0 whole entry partner): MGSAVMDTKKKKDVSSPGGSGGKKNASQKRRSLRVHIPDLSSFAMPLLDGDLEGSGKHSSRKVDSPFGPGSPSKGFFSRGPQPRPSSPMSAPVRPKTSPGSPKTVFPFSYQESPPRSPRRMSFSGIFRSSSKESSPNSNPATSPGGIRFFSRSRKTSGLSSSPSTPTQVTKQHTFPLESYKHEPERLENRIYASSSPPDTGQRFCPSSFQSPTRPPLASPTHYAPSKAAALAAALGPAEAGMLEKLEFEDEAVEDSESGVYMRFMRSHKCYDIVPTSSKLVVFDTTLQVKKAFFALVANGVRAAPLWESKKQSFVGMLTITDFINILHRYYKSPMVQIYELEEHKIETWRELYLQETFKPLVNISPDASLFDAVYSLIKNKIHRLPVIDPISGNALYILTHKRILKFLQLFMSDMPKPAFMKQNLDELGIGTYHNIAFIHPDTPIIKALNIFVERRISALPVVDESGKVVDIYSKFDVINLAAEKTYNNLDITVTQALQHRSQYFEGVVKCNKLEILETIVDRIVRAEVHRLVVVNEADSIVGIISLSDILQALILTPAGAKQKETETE

SMILES: O=c1[nH]c2scc(-c3ccc(-c4ccccc4)cc3)c2c(O)c1-c1ccccc1 [Compound 1, 3-biphenyl-4-yl-4-hydroxy-5-phenyl-6,7-dihydro-thieno[2,3-b]pyridin-6-one]
- activity: Ratio between the % of control (basal activity) of compound of formula (I) at 30 μM and the % of control (basal activity) of AMP at 30 μM [1]: 130%
- EC (glucose uptake equal or higher to insulin 170 nM) (H-2 Kb cells): > 10 µM

SMILES: COc1ccccc1-c1ccc(-c2csc3[nH]c(=O)c(-c4ccccc4)c(O)c23)cc1 [Compound 2, 4-hydroxy-3-(2′-methoxybiphenyl-4-yl)-5-phenyl-6,7-dihydro-thieno[2,3-b]pyridin-6-one]
- activity: Ratio between the % of control (basal activity) of compound of formula (I) at 30 μM and the % of control (basal activity) of AMP at 30 μM [1]: 158%
- EC (glucose uptake equal or higher to insulin 170 nM) (H-2 Kb cells): > 10 µM

SMILES: COc1ccccc1-c1ccc(-c2c(Cl)sc3[nH]c(=O)c(-c4ccccc4)c(O)c23)cc1 [Compound 3, 2-chloro-4-hydroxy-3-(2′-methoxybiphenyl-4-yl)-5-phenyl-6,7-dihydro-thieno[2,3-b]pyridin-6-one]
- activity: Ratio between the % of control (basal activity) of compound of formula (I) at 30 μM and the % of control (basal activity) of AMP at 30 μM [1]: 111%
- activity: Concentration of compound for a glucose uptake equal or higher to glucose uptake induced by insulin (170 nM) (H-2 Kb cells): ** (concentration of compound (I) ≦10 microMolar)

SMILES: O=c1[nH]c2scc(-c3ccc(-c4ccccc4O)cc3)c2c(O)c1-c1ccccc1 [Compound 4, 4-hydroxy-3-(2′-hydroxybiphenyl-4-yl)-5-phenyl-6,7-dihydro-thieno[2,3-b]pyridin-6-one]
- activity: Ratio between the % of control (basal activity) of compound of formula (I) at 30 μM and the % of control (basal activity) of AMP at 30 μM [1]: 126%
- EC (glucose uptake equal or higher to insulin 170 nM) (H-2 Kb cells): > 10 µM

SMILES: O=c1[nH]c2scc(-c3ccc(-c4ccccc4F)cc3)c2c(O)c1-c1ccccc1 [Compound 6, 3-(2′-fluorobiphenyl-4-yl)-4-hydroxy-5-phenyl-6,7-dihydro-thieno[2,3-b]pyridin-6-one]
- activity: Ratio between the % of control (basal activity) of compound of formula (I) at 30 μM and the % of control (basal activity) of AMP at 30 μM [1]: 191%
- EC (glucose uptake equal or higher to insulin 170 nM) (H-2 Kb cells): > 10 µM

SMILES: Cc1ccccc1-c1ccc(-c2csc3[nH]c(=O)c(-c4ccccc4)c(O)c23)cc1 [Compound 7, 4-hydroxy-3-(2′-methylbiphenyl-4-yl)-5-phenyl-6,7-dihydro-thieno[2,3-b]pyridin-6-one]
- activity: Ratio between the % of control (basal activity) of compound of formula (I) at 30 μM and the % of control (basal activity) of AMP at 30 μM [1]: 141%
- EC (glucose uptake equal or higher to insulin 170 nM) (H-2 Kb cells): > 10 µM

SMILES: O=c1[nH]c2scc(-c3ccc(-c4cccc(O)c4)cc3)c2c(O)c1-c1ccccc1 [Compound 9, 4-hydroxy-3-(3′-hydroxybiphenyl-4-yl)-5-phenyl-6,7-dihydro-thieno[2,3-b]pyridin-6-one]
- activity: Ratio between the % of control (basal activity) of compound of formula (I) at 30 μM and the % of control (basal activity) of AMP at 30 μM [1]: 120%
- EC (glucose uptake equal or higher to insulin 170 nM) (H-2 Kb cells): > 10 µM

SMILES: Cc1cccc(-c2ccc(-c3csc4[nH]c(=O)c(-c5ccccc5)c(O)c34)cc2)c1 [Compound 11, 4-hydroxy-3-(3′-methylbiphenyl-4-yl)-5-phenyl-6,7-dihydro-thieno[2,3-b]pyridin-6-one]
- activity: Ratio between the % of control (basal activity) of compound of formula (I) at 30 μM and the % of control (basal activity) of AMP at 30 μM [1]: 150%
- EC (glucose uptake equal or higher to insulin 170 nM) (H-2 Kb cells): > 10 µM

SMILES: COc1cc(-c2csc3[nH]c(=O)c(-c4ccccc4)c(O)c23)ccc1-c1ccc(C)cc1 [Compound 46, 4-hydroxy-3-(4′-methyl-2-methoxybiphenyl-4-yl)-5-phenyl-6,7-dihydro-thieno[2,3-b]pyridin-6-one]
- activity: Ratio between the % of control (basal activity) of compound of formula (I) at 30 μM and the % of control (basal activity) of AMP at 30 μM [1]: 124%

SMILES: COc1cc(-c2csc3[nH]c(=O)c(-c4ccccc4)c(O)c23)ccc1-c1ccc(F)cc1 [Compound 47, 3-(4′-fluoro-2-methoxybiphenyl-4-yl)-4-hydroxy-5-phenyl-6,7-dihydro-thieno[2,3-b]pyridin-6-one]
- activity: Ratio between the % of control (basal activity) of compound of formula (I) at 30 μM and the % of control (basal activity) of AMP at 30 μM [1]: 118%

SMILES: COc1cc(-c2csc3[nH]c(=O)c(-c4ccccc4)c(O)c23)ccc1-c1ccc(O)cc1 [Compound 48, 4-hydroxy-3-(4′-hydroxy-2-methoxybiphenyl-4-yl)-5-phenyl-6,7-dihydro-thieno[2,3-b]pyridin-6-one]
- activity: Ratio between the % of control (basal activity) of compound of formula (I) at 30 μM and the % of control (basal activity) of AMP at 30 μM [1]: 264%

SMILES: Cc1ccc(-c2ccc(-c3csc4[nH]c(=O)c(-c5ccccc5)c(O)c34)cc2O)cc1 [Compound 50, 4-hydroxy-3-(2-hydroxy-4′-methylbiphenyl-4-yl)-5-phenyl-6,7-dihydro-thieno[2,3-b]pyridin-6-one]
- activity: Ratio between the % of control (basal activity) of compound of formula (I) at 30 μM and the % of control (basal activity) of AMP at 30 μM [1]: 421%

SMILES: O=c1[nH]c2scc(-c3ccc(-c4ccc(O)cc4)c(O)c3)c2c(O)c1-c1ccccc1 [Compound 51, 4-hydroxy-3-(2,4′-hydroxybiphenyl-4-yl)-5-phenyl-6,7-dihydro-thieno[2,3-b]pyridin-6-one]
- activity: Ratio between the % of control (basal activity) of compound of formula (I) at 30 μM and the % of control (basal activity) of AMP at 30 μM [1]: 384%

SMILES: COc1cc(-c2csc3[nH]c(=O)c(-c4ccccc4)c(O)c23)ccc1-c1ccc(C(=O)O)cc1 [Compound 52, 4′-(4-hydroxy-6-oxo-5-phenyl-6,7-dihydro-thieno[2,3-b]pyridin-3-yl)-2′-methoxybiphenyl-4-carboxylic acid]
- activity: Ratio between the % of control (basal activity) of compound of formula (I) at 30 μM and the % of control (basal activity) of AMP at 30 μM [1]: 219%

SMILES: O=C(O)c1ccc(-c2ccc(-c3csc4[nH]c(=O)c(-c5ccccc5)c(O)c34)cc2O)cc1 [Compound 53, 2′-hydroxy-4′-(4-hydroxy-6-oxo-5-phenyl-6,7-dihydro-thieno[2,3-b]pyridin-3-yl)biphenyl-4-carboxylic acid]
- activity: Ratio between the % of control (basal activity) of compound of formula (I) at 30 μM and the % of control (basal activity) of AMP at 30 μM [1]: 376%

SMILES: COc1cc(-c2csc3[nH]c(=O)c(-c4ccccc4)c(O)c23)ccc1-c1cccc(CO)c1 [Compound 55, 4-hydroxy-3-(3′-hydroxymethyl-2-methoxybiphenyl-4-yl)-5-phenyl-6,7-dihydro-thieno[2,3-b]pyridin-6-one]
- activity: Ratio between the % of control (basal activity) of compound of formula (I) at 30 μM and the % of control (basal activity) of AMP at 30 μM [1]: 160%

SMILES: COc1cc(-c2csc3[nH]c(=O)c(-c4ccccc4)c(O)c23)ccc1-c1cccnc1 [Compound 56, 4-hydroxy-3-[3-methoxy-4-pyridin-3-ylphenyl]-5-phenyl-6,7-dihydro-thieno[2,3-b]pyridin-6-one]
- activity: Ratio between the % of control (basal activity) of compound of formula (I) at 30 μM and the % of control (basal activity) of AMP at 30 μM [1]: 143%

SMILES: O=c1[nH]c2scc(-c3ccc(-c4ccncc4)cc3O)c2c(O)c1-c1ccccc1 [Compound 57, 4-hydroxy-3-[2-hydroxy-4-pyridin-4ylphenyl]-5-phenyl-6,7-dihydro-thieno[2,3-b]pyridin-6-one]
- activity: Ratio between the % of control (basal activity) of compound of formula (I) at 30 μM and the % of control (basal activity) of AMP at 30 μM [1]: 243%

SMILES: O=c1[nH]c2scc(-c3ccc(-c4cccc(CO)c4)cc3)c2c(O)c1-c1ccccc1 [Compound 58, 4-hydroxy-3-(3′-hydroxymethylbiphenyl-4-yl)-5-phenyl-6,7-dihydro-thieno[2,3-b]pyridin-6-one]
- activity: Ratio between the % of control (basal activity) of compound of formula (I) at 30 μM and the % of control (basal activity) of AMP at 30 μM [1]: 111%

SMILES: O=c1[nH]c2scc(-c3ccc(-c4ccc(CO)cc4)cc3)c2c(O)c1-c1ccccc1 [Compound 59, 4-hydroxy-3-(4′-hydroxymethylbiphenyl-4-yl)-5-phenyl-6,7-dihydro-thieno[2,3-b]pyridin-6-one]
- activity: Ratio between the % of control (basal activity) of compound of formula (I) at 30 μM and the % of control (basal activity) of AMP at 30 μM [1]: 128%
